From ChEMBL document CHEMBL4673395, “Discovery of PIPE-359, a Brain-Penetrant, Selective M Receptor Antagonist with Robust Efficacy in Murine MOG-EAE” (ACS Med Chem Lett, 2021) come the findings set out here.

Where only a bound is given, the exact number is not on record here.

Series [1] addresses T1, Muscarinic acetylcholine receptor M1 (Homo sapiens, UniProt P11229).
T1 sequence (P11229 whole entry): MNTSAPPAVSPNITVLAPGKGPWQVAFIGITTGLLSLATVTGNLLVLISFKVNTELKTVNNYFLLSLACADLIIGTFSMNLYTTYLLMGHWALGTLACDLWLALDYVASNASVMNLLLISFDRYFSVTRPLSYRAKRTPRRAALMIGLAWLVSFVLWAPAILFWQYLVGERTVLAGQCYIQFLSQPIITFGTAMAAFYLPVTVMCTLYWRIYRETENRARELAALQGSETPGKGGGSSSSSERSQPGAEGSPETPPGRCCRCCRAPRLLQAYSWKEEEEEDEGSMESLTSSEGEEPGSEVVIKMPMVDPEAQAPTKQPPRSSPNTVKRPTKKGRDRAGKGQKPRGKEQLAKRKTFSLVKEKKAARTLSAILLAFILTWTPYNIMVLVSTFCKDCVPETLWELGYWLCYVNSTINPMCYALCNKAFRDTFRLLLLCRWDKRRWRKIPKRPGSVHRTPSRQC
Kind of series: Antagonist activity at human recombinant muscarinic receptor M1 expressed in CHO-K1 cells assessed as EC80 acetylcholine-induced calcium flux incubated for 30 mins. The format is functional, cell-based. On the technique in general: Calcium flux is commonly read through the fluorescence of an indicator in the cells.

Series [2] can be described thus: Metabolic stability in rat liver microsomes assessed as parent compound remaining at 1 uM measured at 15 mins by LC-MS/MS analysis. Format: ADME, Microsome. Particulars: read-out: Stabilty. For orientation: Liver microsomes are vesicles of endoplasmic reticulum, rich in cytochrome P450 enzymes.
In series [3] the target is Muscarinic acetylcholine receptor M3 (Homo sapiens, UniProt P20309). As to the kind of experiment: Antagonist activity at human recombinant muscarinic receptor M3 expressed in CHO-K1 cells assessed as EC80 acetylcholine-induced calcium flux incubated for 30 mins. The format is functional, cell-based. Particulars: read-out: pIC50 (converted).
Muscarinic acetylcholine receptor M3, sequence (P20309 whole entry): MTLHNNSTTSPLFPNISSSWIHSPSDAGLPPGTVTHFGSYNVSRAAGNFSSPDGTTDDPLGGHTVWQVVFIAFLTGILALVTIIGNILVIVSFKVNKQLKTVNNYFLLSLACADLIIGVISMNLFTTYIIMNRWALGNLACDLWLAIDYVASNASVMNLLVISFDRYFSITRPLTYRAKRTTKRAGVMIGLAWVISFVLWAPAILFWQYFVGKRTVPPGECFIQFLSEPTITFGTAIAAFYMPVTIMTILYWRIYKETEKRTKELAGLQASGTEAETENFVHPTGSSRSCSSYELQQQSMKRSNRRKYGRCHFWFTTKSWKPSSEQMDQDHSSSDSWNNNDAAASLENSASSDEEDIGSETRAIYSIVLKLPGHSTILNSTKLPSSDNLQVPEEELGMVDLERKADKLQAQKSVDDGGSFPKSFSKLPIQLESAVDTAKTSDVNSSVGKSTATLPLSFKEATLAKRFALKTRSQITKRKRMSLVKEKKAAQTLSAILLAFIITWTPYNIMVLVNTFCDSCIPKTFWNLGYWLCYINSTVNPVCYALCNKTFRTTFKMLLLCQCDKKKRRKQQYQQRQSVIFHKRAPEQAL
In series [4] the target is T2, Muscarinic acetylcholine receptor M2 (Homo sapiens, UniProt P08172).
T2 sequence (P08172 whole entry): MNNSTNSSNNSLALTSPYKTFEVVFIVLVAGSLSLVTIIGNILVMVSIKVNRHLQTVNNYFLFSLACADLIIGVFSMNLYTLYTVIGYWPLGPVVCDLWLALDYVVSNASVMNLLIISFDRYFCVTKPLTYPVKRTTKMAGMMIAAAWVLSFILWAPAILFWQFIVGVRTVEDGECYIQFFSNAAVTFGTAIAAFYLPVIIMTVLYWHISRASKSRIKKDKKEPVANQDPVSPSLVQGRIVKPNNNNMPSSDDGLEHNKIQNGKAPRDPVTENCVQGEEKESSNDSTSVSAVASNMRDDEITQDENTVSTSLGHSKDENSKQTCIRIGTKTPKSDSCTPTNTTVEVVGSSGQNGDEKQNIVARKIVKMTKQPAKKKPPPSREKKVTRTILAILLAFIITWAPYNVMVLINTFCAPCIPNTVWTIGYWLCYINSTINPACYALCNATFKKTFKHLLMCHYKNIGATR
As to the kind of experiment: Antagonist activity at human recombinant muscarinic receptor M2 expressed in CHO-K1 cells assessed as EC80 acetylcholine-induced calcium flux incubated for 30 mins. The format is functional, cell-based. Particulars: read-out: pIC50 (converted).

Regarding `N#Cc1cc(N2CCN(C(=O)CCCc3cccc4ncccc34)CC2)ccn1`, the IC50 in series [1] (read-out: IC50) came to 65 nM.
For the molecule `Cc1cc(F)cnc1N1CCN(C(=O)CCCc2cccc3ncoc23)[C@@H](C)C1`, in series [2], the remaining at 0.25 h, 1 µM is 0%.
For the molecule `O=C(CCNS(=O)(=O)c1cccc2ncccc12)N1CCN(c2ccncc2)CC1`, the IC50 in series [1] (read-out: IC50) is 130 nM.
On the same count and under the same terms, the value for `C[C@@H]1CN(C(=O)CCS(=O)(=O)c2cccc3ncsc23)[C@@H](C)CN1c1ccc(C#N)cn1` (racemic) was 330 nM.
Same read-out and setting: the value for `Cc1cc(F)cnc1N1CCCN(C(=O)CCCc2cccc3ncccc23)CC1` was 1400 nM; that for `O=C(CCCc1cccc2ncccc12)N1CC2CC1CN2c1ccc(F)cn1` (racemic) was 950 nM.
With `O=C(CCCc1cccc2ncccc12)N1CC2(C1)CN(c1ccc(F)cn1)C2`, the IC50 in series [1] (read-out: IC50) is more than 20000 nM; in series [1] (read-out: pIC50 (converted)) it was more than 10000 nM.
As to `Cc1cc(F)cnc1N1CCN(C(=O)CCCc2cccc3ncc(CO)cc23)[C@@H](C)C1`, the figures for the IC50 in series [1] (read-out: IC50) and in series [1] (read-out: pIC50 (converted)) were more than 170 nM and 158 nM, respectively. Also, in series [2], the remaining at 0.25 h, 1 µM turned out to be 1%.
Regarding `COc1cc(N2CCN(C(=O)CCCc3cccc4ncccc34)CC2)ccn1`, the IC50 in series [1] (read-out: IC50) stood at 300 nM.
Turning to `CC1CN(c2ccc(C#N)cn2)CCN1C(=O)CCS(=O)(=O)c1cccc2ncsc12` (racemic), in series [1] (read-out: IC50), the IC50 is 22 nM.
`Cc1cc(F)cnc1N1CCN(C(=O)CCCc2cccc3ncccc23)[C@H](C)C1`: the results for the IC50 in series [3] and in series [4] were 501 nM and 631 nM, respectively.
`C[C@@H]1CN(c2ccncc2Cl)CCN1C(=O)CCCc1cccc2ncccc12`: the IC50 in series [1] (read-out: IC50) was 38 nM.
For `O=C(CCS(=O)(=O)c1cccc2ncsc12)N1CCN(c2ccc(C(F)(F)F)cn2)CC1`, in series [1] (read-out: IC50), the IC50 came to 32 nM. The remaining at 0.25 h, 1 µM in series [2] was found to be 41%.
For `CC1(C)CN(c2ccc(C#N)cn2)CCN1C(=O)CCS(=O)(=O)c1cccc2ncsc12`, in series [1] (read-out: IC50), the IC50 was 4100 nM.
Consider `Cc1cc(F)cnc1N1CCN(C(=O)CCCc2cccc3cncnc23)[C@@H](C)C1`, for which the IC50 in series [1] (read-out: IC50) is more than 20000 nM; in series [1] (read-out: pIC50 (converted)), more than 10000 nM.
In the case of `N#Cc1ccc(N2CC3CCC(C2)N3C(=O)CCS(=O)(=O)c2cccc3ncsc23)nc1`, in series [1] (read-out: IC50), the IC50 was determined as 8.7 nM.
Consider `O=C(CCS(=O)(=O)c1cccc2ncsc12)N1CCN(c2ccncc2F)CC1`, for which, in series [1] (read-out: IC50), the IC50 turned out to be 380 nM. For the same molecule, the remaining at 0.25 h, 1 µM in series [2] came to 29%.
For `N#Cc1cnccc1N1CCN(C(=O)CCCc2cccc3ncccc23)CC1`, the IC50 in series [1] (read-out: IC50) amounted to 1100 nM.
On the same count and under the same terms, the same measure for `N#Cc1ccc(N2CC3CCC2CN3C(=O)CCS(=O)(=O)c2cccc3ncsc23)nc1` (racemic): 25 nM.
Turning to `Cc1cc(F)cnc1N1CCN(C(=O)CCCc2cccc3ncncc23)[C@@H](C)C1`, the IC50 in series [1] (read-out: IC50) worked out at 83 nM. Besides, the remaining at 0.25 h, 1 µM in series [2] turned out to be 0%.
